The subject of test [1] is CD8^+ cells from immunised transgenic mice. Put plainly: IFN-γ/CD8+ ELISpot assay after DNA immunisation of HLA-A2 transgenic mice. Type of test: cell-based. Conditions: for Mean IFN-γ^+ve per 10^6 CD8^+ve cells: after subtraction of HepB negative controls; for number of IFN-γ secreting CD8^+ (in words): spleen cells of DNA immunised transgenic mice. The source says:
Full-length C.pneumoniae and C.trachomatis genes encoding the polypeptides which contain CTL epitopes were amplified by PCR using the primers in Table 4 and cloned into plasmid expression vector pCMVKASF2-120, from which the gp120 sequence had been previously excised by treatment with NheI and SalI restriction enzymes. The chlamydial sequences were thus downstream of the tPA signal sequence.
The plasmids were used for DNA immunisation of transgenic mice expressing the human HLA-A2 gene which express a chimeric class I molecule composed of the α1 and α2 domains of HLA-A2.1 and the α3 transmembrane and cytoplasmic domains of H-2K^b.
Mice were immunised at days 0, 21 and 35 by intramuscular injection of 50μg endotoxin-free recombinant plasmid DNA. One week after the third immunisation, the animals were sacrificed, spleens were removed and CD8+ cells were purified by means of CD8α(Ly-2) Microbeads and LS Separation Columns following the technical procedures described by Miltenyi Biotec™. These CD8^+ cells were tested by Elispot assay to detect cells which secrete IFN-γ in response to given peptides. The Elispot procedure was as follows: • 1. 96-well nitrocellulose plates are coated with 5 μg/ml anti-mouse IFN-γ in 100 μl carbonate buffer, pH 9.2. Cover plate with lid and incubate overnight (o.n.) at 4° C. • 2. Discard coating antibody. Rinse plates 3 times with PBS (200 μl per rinse). Shake excess liquid from plate and pat bottom of plate with dry absorbent paper. • 3. Add 200 μl blocking solution (PBS-BSA 1%) to each well to saturate remaining binding sites and incubate 2 hours at 37° C. (or o.n. at 4° C.). • 4. Discard blocking solution, wash plate 3 times with PBS (200 μl per rinse). Shake excess liquid from plate and pat bottom of plate with dry absorbent paper. • 5. Add 100 μl complete medium and incubate 10 minutes at room temperature. Discard liquid and pat bottom of plate with dry absorbent paper. • 6. Add cells (5×10^4 CD8^+ from immunised transgenic mice and 2×10^5 irradiated spleen cells from non-immunised transgenic mice) with complete medium supplemented with the tested peptide (5, 10 or 20 μg/ml) and IL-2 (10 units/ml). • 7. Incubate 20-24 hours in a humidified 37° C., 5% CO2 incubator. • 8. Take off medium, add 200 μl per wash of ice-cold distilled water and incubate on ice for 10 minutes. Then wash ten times in wash buffer (PBS-Tween 0.05%), 2001 per wash. Shake excess liquid from plate and pat bottom of plate with dry absorbent paper. • 9. To detect IFN-γ spots, add 1 μg/ml biotinylated anti mouse IFN-γ in 100 μl in Elispot dilution buffer (PBS-BSA 1%) and incubate 2 hours at 37° C. • 10. Wash plate 3 times with wash buffer (PBS-Tween 0.05%), 200 μl per wash and 3 times with PBS without Tween (200 μl). Shake excess liquid from plate and pat bottom of plate with dry absorbent paper. • 11. Add 100 μl 1:2000 dilution of alkaline phosphatase-coupled avidin in PBS-BSA 1% (Sigma). Incubate 1 hour at 37° C. • 12. Wash plate 3 times with wash buffer (PBS-Tween 0.05%), 2001il per wash and 3 times with PBS without Tween (200 μl). Shake excess liquid from plate and pat bottom of plate with dry absorbent paper. • 13. Spots of […] secreting cells are visualised by adding 50 μl of the ready-to-use substrate BCIP/NBT (Sigma) dissolved in water. The reaction is stopped after 45 minutes at 37° C. by several washes with distilled water.
Values are shown after subtraction of HepB negative controls.

The subject of test [2] is HLA A2. The class given is binding, human. The settings on record: for Mean 1 / Mean 2 / binding to HLA A2 (in words): RMA-S/A2 cells; for Mean 1: peptide and only anti-mouse secondary antibody; for Mean 1 / Mean 2: FACS mean; for Mean 2: peptide, anti-A2 Mab BB7.2 and secondary antibody; for binding to HLA A2 (in words): in vitro binding assay.

“Also recorded” adds a separate entry of the source. Read-outs that look alike come from different tables or passages of the source.

With SITVFRWLV [CH58], in test [1] (peptide dose 5 μg/ml), the “Mean IFN-γ^+ve per 10^6 CD8^+ve cells” value turned out to be 1046 per 10^6 CD8^+ve cells. In addition, the “Mean IFN-γ^+ve per 10^6 CD8^+ve cells” value in test [1] (peptide dose 10 μg/ml) is recorded as 980 per 10^6 CD8^+ve cells. Moreover, the “Mean IFN-γ^+ve per 10^6 CD8^+ve cells” value in test [1] (peptide dose 20 μg/ml) turned out to be 986 per 10^6 CD8^+ve cells. In addition, the “number of IFN-γ secreting CD8^+ (in words)” value (“number” below) in test [1] is “well above background levels; also recorded: strongly positive”. In test [2], the “High - B” value is reported as −15, the “Δ Mean” value is recorded as 145 and the “binding to HLA A2 (in words)” value is “negative results”. In test [2] (10 μM peptide), the “Mean 1” value stood at 155 and the “Mean 2” value stood at 300.

On to YMDNNLFYV [CH7], for which the “Mean IFN-γ^+ve per 10^6 CD8^+ve cells” value in test [1] (peptide dose 5 μg/ml) came out at 366 per 10^6 CD8^+ve cells. Moreover, the “Mean IFN-γ^+ve per 10^6 CD8^+ve cells” value in test [1] (peptide dose 10 μg/ml) was 400 per 10^6 CD8^+ve cells. Besides, the “Mean IFN-γ^+ve per 10^6 CD8^+ve cells” value in test [1] (peptide dose 20 μg/ml) was 433 per 10^6 CD8^+ve cells. Besides, the “number” value in test [1] was “well above background levels”. For the same sequence, in test [2], the “High - B” value worked out at 102, the “Δ Mean” value came out at 348 and the “binding to HLA A2 (in words)” value was “bind to HLA A2”. Further, in test [2] (10 μM peptide), the “Mean 1” value is given as 203 and the “Mean 2” value was found to be 551. Further, the “ΔMean at high concentrations of peptide (in words)” value in test [2] (high peptide concentrations, non-homogeneous fluorescent signal, most likely non-specific effects) was “Very low ΔMean values”.

Take YVFDRILKV [CH13]: the “Mean IFN-γ^+ve per 10^6 CD8^+ve cells” value in test [1] (peptide dose 5 μg/ml) came to 466.8 per 10^6 CD8^+ve cells. Moreover, the “Mean IFN-γ^+ve per 10^6 CD8^+ve cells” value in test [1] (peptide dose 10 μg/ml) amounted to 700 per 10^6 CD8^+ve cells. In addition, the “Mean IFN-γ^+ve per 10^6 CD8^+ve cells” value in test [1] (peptide dose 20 μg/ml) turned out to be 540 per 10^6 CD8^+ve cells. Moreover, the “number” value in test [1] was “well above background levels”. Further, in test [2], the “High - B” value came out at 119, the “Δ Mean” value amounted to 365 and the “binding to HLA A2 (in words)” value was “bind to HLA A2”. In test [2] (100 μM peptide), the “Mean 1” value came to 217 and the “Mean 2” value came out at 582.

As for YLLEEIYTV [CH6], the “Mean IFN-γ^+ve per 10^6 CD8^+ve cells” value in test [1] (peptide dose 5 μg/ml) is given as 106.8 per 10^6 CD8^+ve cells. The “Mean IFN-γ^+ve per 10^6 CD8^+ve cells” value in test [1] (peptide dose 10 μg/ml) was 486.8 per 10^6 CD8^+ve cells. Besides, the “Mean IFN-γ^+ve per 10^6 CD8^+ve cells” value in test [1] (peptide dose 20 μg/ml) was 266.6 per 10^6 CD8^+ve cells. Moreover, the “number” value in test [1] is listed as “well above background levels”. Also, in test [2], the “High - B” value is 130, the “Δ Mean” value stood at 376 and the “binding to HLA A2 (in words)” value was “bind to HLA A2”. Besides, in test [2] (10 μM peptide), the “Mean 1” value was determined as 198 and the “Mean 2” value turned out to be 574.

For the sequence GLTEEIDYV [CH10], in test [1] (peptide dose 5 μg/ml), the “Mean IFN-γ^+ve per 10^6 CD8^+ve cells” value turned out to be 226 per 10^6 CD8^+ve cells. Besides, the “Mean IFN-γ^+ve per 10^6 CD8^+ve cells” value in test [1] (peptide dose 10 μg/ml) amounted to 233.3 per 10^6 CD8^+ve cells. Further, the “Mean IFN-γ^+ve per 10^6 CD8^+ve cells” value in test [1] (peptide dose 20 μg/ml) came out at 200 per 10^6 CD8^+ve cells. For the same sequence, the “number” value in test [1] is recorded as “well above background levels”. Besides, in test [2], the “High - B” value is reported as 139, the “Δ Mean” value is 385 and the “binding to HLA A2 (in words)” value was “bind to HLA A2”. Besides, in test [2] (10 μM peptide), the “Mean 1” value was found to be 202 and the “Mean 2” value is 587.
